According to patent publication US11370841B2, “Methods of treating fibroblast growth factor 19-mediated cancers and tumors” (NGM Biopharmaceuticals, Inc., priority 2016, dated 2022):

Experiments:
[1] = system: FGF19-mediated hepatocellular carcinoma; assay: AAV-FGF19 tumorigenicity and metabolic study in Stat3f/f and Stat3ΔHep mice; conditions: for Reduction in hepatic mRNA levels of Cyp7a1 / Reduction in hepatic mRNA levels of Cyp8b: AAV-expressed FGF19, 12 months
Protocol: Hepatocyte-specific Stat3 deletion. […] Stat3^f/f mice injected with AAV-TBG-Cre alone served as Stat3^ΔHep controls. Stat3^f/f mice were used as wild type controls. AAV-TBG-Cre drives Cre recombinase expression under TBG promoter, which allows hepatocyte-specific expression.
52 weeks after AAV injection, mice were euthanized and examined for liver tumor formation. The maximum diameter of liver tumor nodules in each mouse was measured with a caliper and total numbers of tumor nodules per liver were recorded. Livers were weighed and collected for histological examination or gene expression analysis.
Glucose and body composition. Blood concentrations of ad libitum fed glucose were measured in conscious animals from a hand-held glucometer (Accu-check, Roche Diagnostics) using tail vein blood. Body weight and body composition (EcoMRI whole body composition analyzer) were measured at designated times. Mice were euthanized 52 weeks post-AAV administration. Macroscopic liver tumors were counted and the maximal diameter of the tumors recorded.
Gene expression analysis.
(§1) Blood parameters. Blood was collected from tail vein in un-anesthetized animals using microvette serum gel tubes (Sarstedt) for measurements of glucose, insulin, ALT, AST, ALP, bile acids, and FGF19 concentrations. Serum samples were prepared by centrifugation at 4° C. for 10 minutes at 6000 g after clotting at room temperature for 30 minutes. For HbA1c measurements, whole blood was collected after euthanasia by cardiac puncture into EDTA-tubes and quickly inverted multiple times. HbA1c (from whole blood samples) and liver enzyme (from serum samples) levels were measured on Cobas Integra 400 Clinical Analyzer (Roche Diagnostics). Serum FGF19 level was determined by FGF19 enzyme-linked immunosorbent assays (ELISA) (Biovendor). Serum insulin was assessed with ELISA kits from ALPCO. Concentrations of total bile acids in serum were determined using a 3β-hydroxysteroid dehydrogenase method (Diazyme). All assays were performed according to the manufacturers' instructions.
(§2) Histology and immunohistochemistry. Livers were fixed in 10% neutral-buffered formalin and embedded in paraffin. 5 μm sections were deparaffinized in xylenes, rehydrated sequentially in graded ethanol (100%, 95%, 80%, 70%, 50%, 2 minutes each). Hematoxylin and eosin staining was performed using standard methods. For immunohistochemical studies, liver sections were subjected to antigen retrieval in a citrate-based Antigen Unmasking Solution (Vector Laboratories), and incubated for 30 minutes with 3% H2O2 at room temperature to block endogenous peroxidase activity. Sections were stained with primary antibodies against glutamine synthetase (Thermo Fisher), BrdU, PCNA, or STAT3 in PBS containing 10% goat serum. Biotinylated secondary antibodies, ABC-HRP reagent (Vectastain ABC kit, #PK-6100, Vector Laboratories) and di-amine-benzidine (DAB) colorimetric peroxidase substrate (#SK-4100, Vector Laboratories) were used for detection. When indicated, sections were counterstained with hematoxylin. Digital imaging microscopy was performed using a Leica DM4000 microscope equipped with DFC500 camera and a scanning platform (Leica). Images for the entire liver section were acquired by stitching 70-96 fields together using Surveyor program for morphometric analysis. Glutamine synthetase-positive tumor areas were quantified using Measure/Count/Area tool from ImagePro software.

FGF19-induced HCC = assay: Tumorigenicity study in IL-6-deficient mice; assay type: in vivo; conditions: both Il6+/+ and Il6-/- mice, AAV-expressed FGF19
Protocol: Histology and immunohistochemistry. […] Hematoxylin and eosin staining was performed using standard methods. […] When indicated, sections were counterstained with hematoxylin.
Tumorigenicity study in IL-6-deficient mice. Il6^−/− mice were backcrossed to C57BL/6 mice for at least nine generations. Age and gender-matched wild type C57BL6 mice were used as Il6^+/+ controls. […] Body weight, body composition, and blood glucose were measured at designated times. Mice were euthanized 52 weeks post-AAV administration for liver tumor assessment.

hepatic mRNA levels = assay: Hepatic gene expression in FGF19-treated db/db mice (qRT-PCR)
[2] = system: primary human hepatocytes; assay: In vitro pSTAT3 activation in primary human hepatocytes; assay type: cell-based; conditions: purified primary human hepatocytes, 50 ng/ml
Protocol: In vitro pSTAT3 activation. Primary human hepatocytes were isolated from consenting donors using a modified collagenase/pronase method (BioReclamation/IVT). Cells were diluted in attachment media (DMEM supplemented with 2 mM glutamine, 100 unit/ml penicillin, 100 unit/ml streptomycin, and 10% FBS), and cells were plated on collagen-coated 6-well plate (Becton Dickinson). Four hours later, cells were changed into William's E media containing dexamethasone/T3/insulin and cultured for 16 hours at 37° C. When indicated, 50 ng/ml FGF19 protein or 50 ng/ml human IL-6 (Peprotech) were added.
Cell extracts were prepared in 50 mM Tris-Cl, PH 7.2, 150 mM NaCl, 1% NP-40, 0.1% SDS, 0.5% sodium deoxycholate supplemented with a protease inhibitor cocktail (Roche) and phosphatase inhibitors (Sigma, phosphatase inhibitor cocktail set 2 and set 3), and protein concentrations were determined by BCA protein assay (Thermo Scientific).
Immunoblotting. […] Membranes were washed in TBST extensively, and bound proteins were detected with horseradish peroxidase-conjugated goat-anti-mouse IgG or goat-anti-rabbit IgG antibodies (GE Healthcare) for 1 hour at room temperature. […]
To investigate an in vitro direct effect of FGF19 on STAT3 activation in isolated hepatocytes, pSTAT3^Y705 levels in primary cultures of hepatocytes upon FGF19 stimulation were analyzed by western blotting. […]

FGF19-mediated HCC = assay: Tumorigenicity study in db/db mice (AAV-SOCS3, tofacitinib); assay type: in vivo
Protocol: as §1, §2
Tumorigenicity study in db/db mice. 11 to 12 week old db/db mice received a single intravenous dose of AAV containing either FGF19 or a control gene (green fluorescent protein). Body weight and blood glucose were monitored. […] Mice were euthanized 24 weeks post-AAV administration and examined for liver tumor formation by gross appearance and histology.

[3] = Stat3f/f mice, AAV-expressed FGF19
[4] = FGF19 protein 1 mg/kg i.p., 2 hours

## FGF19: Fibroblast growth factor 19, mature human 194 amino acid polypeptide (SEQ ID NO: 1); recombinant protein or AAV-expressed
[1]; [3]
  Body weight: weight-lowering
  Glucose: glucose-lowering
[1]; Stat3f/f mice
  Reduction in hepatic mRNA levels of Cyp7a1: 77%
  Reduction in hepatic mRNA levels of Cyp8b: 95%
[1]; Stat3ΔHep mice
  Reduction in hepatic mRNA levels of Cyp7a1: 87%
  Reduction in hepatic mRNA levels of Cyp8b: 88%
FGF19-induced HCC
  Body fat composition: efficiently reduced
Hepatic mRNA levels; [4]
  Hepatic mRNA levels of IL-6: increased significantly
  RNA levels of IL-11, LIF, OSM, CNTF and CTF1: remained unchanged or undetectable
Hepatic mRNA levels; acute FGF19 treatment
  Hepatic Cyp7a1 mRNAs: efficiently suppressed
[2]
  STAT3 activation (pSTAT3 Y705): lack of STAT3 activation
FGF19-mediated HCC; AAV-expressed FGF19, in the absence or presence of SOCS3
  HbA1c: normalized
FGF19-mediated HCC; AAV-expressed FGF19, irrespective of tofacitinib treatment
  Blood glucose levels: normalized
